The results in this text go back to PubChem BioAssay AID1259407 (Chemical Carcinogenesis Research Information System (CCRIS), 2018).

The data set relates to CCRIS mutagenicity, Ames/micronucleus/aberration tests. Put plainly: CCRIS mutagenicity studies.
Where [1] appears, read: Test System: AMES SALMONELLA TYPHIMURIUM, Strain/Indicator: TA100, Metabolic Activation: NONE, Method: STANDARD PLATE.
Where [2] appears, read: Test System: AMES SALMONELLA TYPHIMURIUM, Strain/Indicator: TA1535, Metabolic Activation: NONE, Method: STANDARD PLATE.
Setting [3] is: Test System: AMES SALMONELLA TYPHIMURIUM, Strain/Indicator: TA98, Metabolic Activation: NONE, Method: PREINCUBATION
[4] abbreviates: Test System: AMES SALMONELLA TYPHIMURIUM, Strain/Indicator: TA100, Metabolic Activation: NONE, Method: PREINCUBATION

The source made the active and inactive calls. How the calls were made is not given here.

Turning to `O=Nn1cc(CCO)c2ccccc21`, the mutagenic call (Test System: AMES SALMONELLA TYPHIMURIUM, Strain/Indicator: TA97A, Metabolic Activation: NONE, Method: STANDARD PLATE) was “active; positive”; the mutagenic call (Test System: AMES SALMONELLA TYPHIMURIUM, Strain/Indicator: TA98, Metabolic Activation: NONE, Method: STANDARD PLATE) was “active; positive”; the mutagenic call under setting [1] was “active; positive”; the mutagenic call under setting [2] is “active; positive”; the mutagenic call (Test System: AMES SALMONELLA TYPHIMURIUM, Strain/Indicator: TA1537, Metabolic Activation: NONE, Method: STANDARD PLATE) is “active; positive”.

Turning to `Cn1c([N+](=O)[O-])nc2ncc(-c3ccccc3)cc21`, the mutagenic call is, setting by setting: (Test System: AMES SALMONELLA TYPHIMURIUM, Strain/Indicator: TA98(1,8-DNP6), Metabolic Activation: NONE, Method: PREINCUBATION) “active; positive”; (Test System: AMES SALMONELLA TYPHIMURIUM, Strain/Indicator: TA98(NR), Metabolic Activation: NONE, Method: PREINCUBATION) “active; positive”; under setting [3], “active; positive”; (Test System: AMES SALMONELLA TYPHIMURIUM, Strain/Indicator: YG1024, Metabolic Activation: NONE, Method: PREINCUBATION) “active; positive”.

Consider `OC[C@H]1OC(n2cnc3c2ncn2ccnc32)C[C@@H]1O` (stereo partly specified), for which the mutagenic call under setting [4] was “inactive; negative”.

Consider `O=[N+]([O-])c1cc(-c2cccc([N+](=O)[O-])c2O)ccc1O`, for which the mutagenic call under setting [3] was “inactive; negative”.

As to `C1CC[C@H]2O[C@H]2C1`, the mutagenic call reads like this: (Test System: AMES SALMONELLA TYPHIMURIUM, Strain/Indicator: TA98, Metabolic Activation: HAMSTER, LIVER, S-9, AROCLOR 1254, Method: STANDARD PLATE) “active; positive”; under setting [3], “inactive; negative”; (Test System: AMES SALMONELLA TYPHIMURIUM, Strain/Indicator: TA98, Metabolic Activation: RAT LIVER S-9, PHENOBARBITAL AND BETA-NAPHTHOFLAVONE, Method: PREINCUBATION) “inactive; negative”; (Test System: AMES SALMONELLA TYPHIMURIUM, Strain/Indicator: TA98, Metabolic Activation: RAT, LIVER, S-9, AROCLOR 1254, Method: STANDARD PLATE) “active; positive”; (Test System: AMES SALMONELLA TYPHIMURIUM, Strain/Indicator: TA100, Metabolic Activation: HAMSTER, LIVER, S-9, AROCLOR 1254, Method: STANDARD PLATE) “active; positive”; under setting [4], “active; positive”. The mutagenic call is “active; positive” under setting [1]; “active; positive” (Test System: AMES SALMONELLA TYPHIMURIUM, Strain/Indicator: TA100, Metabolic Activation: RAT LIVER S-9, PHENOBARBITAL AND BETA-NAPHTHOFLAVONE, Method: PREINCUBATION); “active; positive” (Test System: AMES SALMONELLA TYPHIMURIUM, Strain/Indicator: TA100, Metabolic Activation: RAT, LIVER, S-9, AROCLOR 1254, Method: STANDARD PLATE); “active; positive” (Test System: AMES SALMONELLA TYPHIMURIUM, Strain/Indicator: TA1535, Metabolic Activation: NONE, Method: PREINCUBATION); “active; positive” under setting [2]; “active; positive” (Test System: AMES SALMONELLA TYPHIMURIUM, Strain/Indicator: TA1535, Metabolic Activation: RAT LIVER S-9, PHENOBARBITAL AND BETA-NAPHTHOFLAVONE, Method: PREINCUBATION). For the same compound, the mutagenic call is “inactive; negative” (Test System: AMES SALMONELLA TYPHIMURIUM, Strain/Indicator: TA1537, Metabolic Activation: NONE, Method: PREINCUBATION); “inactive; negative” (Test System: AMES SALMONELLA TYPHIMURIUM, Strain/Indicator: TA1537, Metabolic Activation: RAT LIVER S-9, PHENOBARBITAL AND BETA-NAPHTHOFLAVONE, Method: PREINCUBATION); “inactive; negative” (Test System: AMES SALMONELLA TYPHIMURIUM, Strain/Indicator: TA1538, Metabolic Activation: NONE, Method: PREINCUBATION); “inactive; negative” (Test System: AMES SALMONELLA TYPHIMURIUM, Strain/Indicator: TA1538, Metabolic Activation: RAT LIVER S-9, PHENOBARBITAL AND BETA-NAPHTHOFLAVONE, Method: PREINCUBATION); “inactive; negative” (Test System: E. COLI, Strain/Indicator: WP2UVRA, Metabolic Activation: NONE, Method: PREINCUBATION); “active; positive” (Test System: E. COLI, Strain/Indicator: WP2UVRA, Metabolic Activation: RAT LIVER S-9, PHENOBARBITAL AND BETA-NAPHTHOFLAVONE, Method: PREINCUBATION). Besides, the mutagenic call runs as follows: (Test System: MOUSE LYMPHOMA, Strain/Indicator: L5178Y (TK+/TK-), Metabolic Activation: NONE, Method: SUSPENSION/PLATE) “active; positive. reevaluation of results: positive”; (Test System: Mouse lymphoma, Strain/Indicator: L5178Y (tk+/tk-), Metabolic Activation: Rat, Liver, S-9, Aroclor 1254, Method: Suspension/plate) “active; positive”.
